According to patent US12384751B2, “Allosteric activators of the ALPHA1A-adrenergic receptor” (The Cleveland Clinic Foundation, priority 2019, dated 2025):

What was measured:
[1] = molecular target: T1, α1B-AR (Homo sapiens, UniProt P35368); assay: cAMP assay at α1B-AR; format: cell-based
T1 construct: expressed in transfected cells; host or cells: Rat-1 fibroblast cells
T1 sequence (P35368 1-520): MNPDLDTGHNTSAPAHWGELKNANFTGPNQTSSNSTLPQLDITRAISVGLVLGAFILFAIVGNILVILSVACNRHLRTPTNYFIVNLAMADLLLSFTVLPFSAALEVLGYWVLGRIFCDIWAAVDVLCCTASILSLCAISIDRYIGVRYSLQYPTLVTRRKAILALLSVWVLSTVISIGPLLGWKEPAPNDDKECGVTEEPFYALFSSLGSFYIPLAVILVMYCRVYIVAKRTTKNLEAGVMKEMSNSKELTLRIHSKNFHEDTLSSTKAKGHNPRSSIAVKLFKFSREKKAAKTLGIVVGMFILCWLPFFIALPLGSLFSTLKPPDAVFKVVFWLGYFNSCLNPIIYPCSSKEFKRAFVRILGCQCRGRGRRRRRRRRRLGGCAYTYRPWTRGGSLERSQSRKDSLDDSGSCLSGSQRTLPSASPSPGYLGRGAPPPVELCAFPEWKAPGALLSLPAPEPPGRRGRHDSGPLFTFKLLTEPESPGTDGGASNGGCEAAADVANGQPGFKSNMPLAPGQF
Protocol: (§1) cAMP assay: Cells expressing a single α1-adrenergic receptor subtype are washed and re-plated into 24-well plates in DMEM media without serum at approximately 2.4×10^4 cells/well. Cells are allowed to rest till the next day in a CO2 incubator at 37° C. The cells are washed twice with DMEM (no serum), then 1 ml of DMEM is added to each well. Cells are pre-incubated for 45 mins-1 hour at 37° C. in a CO2 incubator with 10 uM propranolol, followed by 100 uM IBMX for 30 minutes. Final DMSO concentration is at 0.05%. Norepinephrine or epinephrine is added in a dose response (1 dose per well) in addition to one of the Compounds 1-10 at one concentration (i.e. 10^−5M). Cells are incubated for another 30 mins at 37° C. in a CO2 incubator. The reaction is concluded by aspirating the media and adding 0.1M HCL. The mixture is incubated for 20 mins at room temperature. The cells are scraped and suspended until homogenous. The mixture is centrifuged at 1000 g for 10 mins and the supernatant assayed the same day according to a manufacturer's cAMP kit (Cayman Select Cyclic AMP EIA kit #501040).

[2] = tested on: 3×TG Alzheimer's Disease (AD) mouse model; assay: Shortened Barnes Maze in 3×TG AD mice; format: in vivo
Protocol: AD mice were first randomized and sorted into control or treatment groups. […] 14 AD mice from each treatment group received Compound 3 in the drinking water (2.611 mg/kg/bw) to deliver a daily dose near the peak potentiation of the cAMP response in the brain at 10^−8M based upon the PAM assay and pharmacokinetics. This was achieved by adding Compound 3 to the drinking water at 32 uM, assuming the mice drink 6 ml/day, with only 10% of bioavailable drug reaching the brain. The drug was administered in the drinking water for 10 months, starting at age 2 months, then subjected to either different cognitive behavioral tests or electrophysiology at age 12 months to maximize the manifestations of AD symptoms in these mice. Mice are maintained on the drug for the duration of the studies and blinded to the operator.
Barnes Maze. The Barnes maze is used to assess spatial learning and memory and consists of a white, flat, circular platform elevated above ground with 40 holes, under which one escape box is located. Three visual cues are placed surrounding the maze and their locations in relation to the escape box and remain constant. Two floodlights and four fans above the maze provide aversion. […] At the start of each trial, a mouse is placed in the center of the maze under a holding chamber for 30 seconds. When the chamber is lifted, the mouse is allowed up to 300 seconds to enter the escape box. […] […] The procedure for the memory trials is the same as learning, except the mice are allowed only one attempt to solve the maze each day. Data includes the time to solve, number of errors made, and distance traveled. Errors are defined as when a mouse poked more than three-quarters of its head into any hole other than the appropriate escape hole. Distance traveled is measured using ANY-MAZE software.

[3] = molecular target: T2, α1A-AR (Homo sapiens, UniProt P35348); assay: Rapid cAMP screening assay for PAM effects (norepinephrine constant at Emax); format: cell-based, human and mouse; conditions: norepinephrine constant at 10^−4M; range over cell lines (fibroblasts, neuroblastoma, cardiomyocytes)
T2 sequence (P35348 1-466): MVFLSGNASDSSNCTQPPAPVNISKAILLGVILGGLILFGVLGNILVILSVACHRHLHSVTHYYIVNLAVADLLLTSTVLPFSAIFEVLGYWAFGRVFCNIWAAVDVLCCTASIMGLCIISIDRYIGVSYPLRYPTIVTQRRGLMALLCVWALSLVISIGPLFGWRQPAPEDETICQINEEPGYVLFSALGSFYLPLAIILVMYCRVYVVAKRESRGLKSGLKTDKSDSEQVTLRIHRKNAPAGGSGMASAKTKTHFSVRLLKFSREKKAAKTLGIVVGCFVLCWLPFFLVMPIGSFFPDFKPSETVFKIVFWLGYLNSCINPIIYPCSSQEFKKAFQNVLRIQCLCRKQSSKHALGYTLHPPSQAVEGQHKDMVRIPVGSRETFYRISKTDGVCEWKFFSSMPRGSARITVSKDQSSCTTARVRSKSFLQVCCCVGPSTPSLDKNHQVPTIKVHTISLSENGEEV
Protocol: as §1
In this assay, the concentration of norepinephrine is held constant at its Emax (10^−4M) (FIG. 10, red line). Compound 3 is then added in a dose-response (FIG. 10, blue line). Any signal above the red line is potentiation. […]

## CC(C)Cc1c(OCC2=NCCN2)cccc1N(C)S(C)(=O)=O [Compound 3, N-[3-(4,5-Dihydro-1H-imidazol-2-ylmethoxy)-2-isobutyl-phenyl]-N-methyl-methanesulfonamide]
[1]
  effect on norepinephrine cAMP response at the α1B-AR: no effect
[2]; AD mice, approached significance
  time to find the escape hole, day 5 memory test: decreased the time to find the escape hole
[2]; female AD mice, day 5 probe
  finding the correct escape hole (number of head pokes): increase the ability of female AD mice to find the correct escape hole
[2]; male AD mice, 5 day training
  latency to the escape hole during training period: significantly decrease the latency
[3]
  Emax of PAM potentiation: 35-60 % of the norepinephrine's maximum response
